These results are taken from publication PMC9938201, “Neuroprotective and antioxidant properties of new quinolylnitrones in in vitro and in vivo cerebral ischemia models” (Scientific Reports, 2023).

In the assay the target is T1, soybean lipoxygenase (LOX) (Glycine max, UniProt P08170).
T1 construct: gene LOX1.1
T1 sequence (P08170 1-839): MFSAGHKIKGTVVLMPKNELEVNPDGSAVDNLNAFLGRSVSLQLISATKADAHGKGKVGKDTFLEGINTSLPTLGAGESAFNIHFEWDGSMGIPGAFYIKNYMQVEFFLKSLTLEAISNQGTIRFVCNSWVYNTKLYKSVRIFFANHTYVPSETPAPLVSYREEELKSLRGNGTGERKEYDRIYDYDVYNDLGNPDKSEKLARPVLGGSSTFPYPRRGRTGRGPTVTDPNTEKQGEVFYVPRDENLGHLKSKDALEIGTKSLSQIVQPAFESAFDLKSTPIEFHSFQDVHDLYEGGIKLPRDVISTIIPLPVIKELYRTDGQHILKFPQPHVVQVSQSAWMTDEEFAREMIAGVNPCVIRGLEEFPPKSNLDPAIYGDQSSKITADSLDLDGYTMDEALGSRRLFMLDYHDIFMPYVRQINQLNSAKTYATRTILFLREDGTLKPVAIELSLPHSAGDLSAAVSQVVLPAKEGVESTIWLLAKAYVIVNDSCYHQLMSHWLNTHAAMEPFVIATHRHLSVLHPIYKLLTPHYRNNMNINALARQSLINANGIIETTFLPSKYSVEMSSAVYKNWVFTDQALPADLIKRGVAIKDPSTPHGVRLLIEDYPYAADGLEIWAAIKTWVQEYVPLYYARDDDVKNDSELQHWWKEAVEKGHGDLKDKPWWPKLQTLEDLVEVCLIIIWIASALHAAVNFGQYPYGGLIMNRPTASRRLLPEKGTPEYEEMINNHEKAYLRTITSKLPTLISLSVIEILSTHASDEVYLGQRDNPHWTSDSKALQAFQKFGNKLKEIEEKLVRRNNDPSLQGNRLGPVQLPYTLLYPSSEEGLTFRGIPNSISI
The experiment in a line: UV absorbance at […] nm, sodium linoleate oxidation by soybean LOX, pH […]. It counts as biochemical.

In the case of `CC(C)(C)/[N+]([O-])=C/c1ccc2cccc(O)c2n1` [QN5], the 50% inhibitory concentration (IC50) (commonly the point on the concentration scale where inhibition reaches its midpoint) turned out to be 5 µM. This lies in the single-digit micromolar range.
